Drawing on PubChem BioAssay (NCI), this text covers TGI and GI50 for 20 molecules.

Among the test systems are MCF7 breast; HS 578T breast; NCI-H460 lung; IGROV1 ovarian; HOP-92 NSCLC; CCRF-CEM leukemia; SW-620 colon; UACC-62 melanoma; HCT-116 colon; MDA-MB-231 breast.
Common to all, as to experiment: NCI anticancer screen, dose series, 48 h

Molecules are shown by their SMILES.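 Values below derive from 48-hour exposures of cells grown in 96-well plates, with endpoints linearly interpolated between the two concentrations bracketing the appropriate inhibition level. GI50 marks 50% less growth. Definition used: TGI = concentration required for complete inhibition of growth.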

With `O=C(Nc1ccccc1C(=O)NCc1ccccc1)/C(=C/c1ccccc1O)NC(=O)c1ccccc1`, the TGI with MCF7 breast, with HS 578T breast, with NCI-H460 lung, with IGROV1 ovarian, in the assay with HOP-92 NSCLC and in the assay on CCRF-CEM leukemia was above 100 µM each time. In addition, the TGI with SW-620 colon, with UACC-62 melanoma, in the assay with HCT-116 colon and with MDA-MB-231 breast was above 100 µM throughout.

As for `C(=N\NC1=NCCCCN1)/c1ccc2ccccc2c1`, the TGI in the assay with MCF7 breast is 70.4 µM; with HS 578T breast, above 100 µM; in the assay on NCI-H460 lung, 62.9 µM; with IGROV1 ovarian, above 100 µM; in the assay on HOP-92 NSCLC, 62.7 µM; with CCRF-CEM leukemia, above 100 µM. Besides, the TGI in the assay on SW-620 colon was 52.4 µM; in the assay on UACC-62 melanoma, 79.8 µM; in the assay with HCT-116 colon it was above 100 µM; with MDA-MB-231 breast, 65.9 µM.

As to `COC(=O)C1(Cc2ccc3c(c2)CCC3)Cc2ccc3c(c2C1=O)CCC3` (centres undefined), the TGI was above 20.4 µM in the assay with MCF7 breast; 16.4 µM with HS 578T breast; above 63.9 µM in the assay with NCI-H460 lung; above 100 µM in the assay on IGROV1 ovarian; 54 µM in the assay on HOP-92 NSCLC; above 83.1 µM in the assay on CCRF-CEM leukemia. Besides, the TGI is above 71.1 µM with SW-620 colon, above 48.5 µM in the assay on UACC-62 melanoma, above 100 µM in the assay on HCT-116 colon and above 87.6 µM in the assay with MDA-MB-231 breast.

Take `CC(C)(C)OC(=O)NC(CSCc1ccc(C(=O)c2ccccc2)cc1)C(=O)N1CCN(CCCCN2c3ccccc3Sc3cc(N=[N+]=[N-])ccc32)CC1` (centres undefined): the TGI with MCF7 breast, with HS 578T breast, in the assay on NCI-H460 lung, in the assay on IGROV1 ovarian, in the assay on HOP-92 NSCLC and in the assay on CCRF-CEM leukemia was above 100 µM throughout. In addition, the TGI in the assay on SW-620 colon, with UACC-62 melanoma, in the assay on HCT-116 colon and with MDA-MB-231 breast was above 100 µM throughout.

As to `O=[N+]([O-])c1ccc2c(c1)nc1n2C(c2c(F)cccc2F)SC1` (centres undefined), the TGI in the assay on MCF7 breast, in the assay on HS 578T breast, in the assay on NCI-H460 lung, in the assay on IGROV1 ovarian, in the assay with HOP-92 NSCLC and in the assay on CCRF-CEM leukemia was above 100 µM throughout. For the same molecule, the TGI with SW-620 colon, in the assay with UACC-62 melanoma, in the assay on HCT-116 colon and in the assay on MDA-MB-231 breast was above 100 µM each time.

Take `Cc1cc(=O)[nH]c2cc(NC(=O)C(C)NC(=O)C(C)NC(=O)C(C)NC(=O)OC(C)(C)C)ccc12` (centres undefined): the TGI with MCF7 breast, in the assay with HS 578T breast, in the assay on NCI-H460 lung, with IGROV1 ovarian, in the assay on HOP-92 NSCLC and with CCRF-CEM leukemia was above 15 µM in each case. The TGI in the assay with SW-620 colon, in the assay on UACC-62 melanoma, in the assay with HCT-116 colon and in the assay on MDA-MB-231 breast was above 15 µM throughout.

Take `O=C(CCCc1cccc2[nH]c3c(c12)CN(Cc1ccccc1)CC3)c1ccc(F)cc1`: the TGI in the assay on MCF7 breast, with HS 578T breast, in the assay with NCI-H460 lung, in the assay with IGROV1 ovarian, in the assay on HOP-92 NSCLC and in the assay on CCRF-CEM leukemia was above 100 µM each time. Besides, the TGI with SW-620 colon, with UACC-62 melanoma, in the assay on HCT-116 colon and with MDA-MB-231 breast was above 100 µM in each case.

For the molecule `ClCCCN1CCN(CCCl)CC1`, the TGI with MCF7 breast is 736 µM; in the assay with HS 578T breast, 885 µM; in the assay on NCI-H460 lung, 356 µM; in the assay with IGROV1 ovarian, 652 µM; with CCRF-CEM leukemia, 437 µM; in the assay on SW-620 colon, above 873 µM. The TGI in the assay with UACC-62 melanoma is 92 µM; in the assay on HCT-116 colon it was 747 µM; with MDA-MB-231 breast it was above 768 µM. Besides, the GI50 is 7.97 µM in the assay on NCI-H460 lung; 0.0248 µM in the assay on HOP-92 NSCLC; 2.54 µM in the assay on CCRF-CEM leukemia; 83.7 µM in the assay with SW-620 colon; 20 µM in the assay on UACC-62 melanoma.

Regarding `COc1ccc2c(c1)/C(=C\c1c(Cl)nc3n1CCS3)C(=O)N2`, the TGI is 48.5 µM in the assay on MCF7 breast; 44.1 µM with HS 578T breast; 18.9 µM in the assay with NCI-H460 lung; above 100 µM with IGROV1 ovarian; above 100 µM with HOP-92 NSCLC; 79.2 µM in the assay on CCRF-CEM leukemia. For the same molecule, the TGI in the assay with SW-620 colon is above 100 µM; with UACC-62 melanoma, 16.3 µM; in the assay with HCT-116 colon, 25.5 µM; with MDA-MB-231 breast, 27.2 µM.

Turning to `CCOC(CBr)OC1C(=O)OCC1(C)C` (centres undefined), the TGI in the assay with MCF7 breast, in the assay on HS 578T breast, in the assay with NCI-H460 lung, in the assay with IGROV1 ovarian, in the assay with HOP-92 NSCLC and with CCRF-CEM leukemia was above 100 µM each time. In addition, the TGI in the assay with SW-620 colon, in the assay with UACC-62 melanoma, with HCT-116 colon and in the assay on MDA-MB-231 breast was above 100 µM each time.

As for `COc1cc(C[C@@]2(C)[C@@H]3CCC[C@H](CO)[C@@]3(C)CC[C@@H]2C)c(Cl)c(OC)c1`, the TGI was 29.8 µM in the assay on MCF7 breast; 47.5 µM with HS 578T breast; 36.3 µM in the assay with NCI-H460 lung; 29.1 µM in the assay on IGROV1 ovarian; 30.5 µM in the assay on HOP-92 NSCLC; above 100 µM in the assay on CCRF-CEM leukemia. For the same molecule, the TGI in the assay with SW-620 colon worked out at 84.6 µM; in the assay on UACC-62 melanoma it was 28.9 µM; in the assay with HCT-116 colon, 24.7 µM; with MDA-MB-231 breast, 32.3 µM.

On to `N=c1oc2cc(O)ccc2cc1C(=O)Nc1ccccn1`, for which the TGI was above 100 µM with MCF7 breast; above 100 µM in the assay with HS 578T breast; above 100 µM in the assay on NCI-H460 lung; above 100 µM in the assay on IGROV1 ovarian; above 100 µM with HOP-92 NSCLC; 94.2 µM in the assay with CCRF-CEM leukemia. The TGI in the assay on SW-620 colon, with UACC-62 melanoma, in the assay on HCT-116 colon and with MDA-MB-231 breast was above 100 µM throughout.

Regarding `Cc1nc2c(Cl)cc(Cl)cc2c2c1CCO2`, the TGI in the assay with MCF7 breast, in the assay with HS 578T breast, with NCI-H460 lung, in the assay with IGROV1 ovarian, in the assay on HOP-92 NSCLC and in the assay on CCRF-CEM leukemia was above 100 µM in each case. For the same molecule, the TGI in the assay on SW-620 colon, in the assay with UACC-62 melanoma, in the assay with HCT-116 colon and in the assay with MDA-MB-231 breast was above 100 µM throughout.

Consider `Cc1cn(S(=O)(=O)c2ccccc2)c2c(OCc3ccccc3)cc([N+](=O)[O-])cc12`, for which the TGI in the assay on MCF7 breast, in the assay on HS 578T breast, in the assay on NCI-H460 lung, in the assay with IGROV1 ovarian, in the assay with HOP-92 NSCLC and in the assay with CCRF-CEM leukemia was above 100 µM in each case. The TGI with SW-620 colon, in the assay on UACC-62 melanoma, with HCT-116 colon and in the assay on MDA-MB-231 breast was above 100 µM throughout.

As for `CS(=O)(=O)OCCN(CCOS(C)(=O)=O)c1ccc(C=Nc2ccc(-c3csc(Cc4ccccc4)n3)cc2)c(Cl)c1`, the TGI in the assay with MCF7 breast was 50.1 µM; with HS 578T breast, 76.7 µM; in the assay on NCI-H460 lung, 43.4 µM; in the assay with IGROV1 ovarian, above 74.2 µM; in the assay on HOP-92 NSCLC, 46.5 µM; in the assay with CCRF-CEM leukemia, above 61.2 µM. For the same molecule, the TGI was above 100 µM in the assay with SW-620 colon, above 47.7 µM in the assay with UACC-62 melanoma, 57.1 µM in the assay on HCT-116 colon and 75.6 µM in the assay with MDA-MB-231 breast.

Consider `COc1cc(/C=C/C(=O)CC(=O)/C=C/c2cc(C)c(O)c(OC)c2)cc(C)c1O`, for which the TGI with MCF7 breast, in the assay on HS 578T breast, in the assay with NCI-H460 lung, in the assay with IGROV1 ovarian, with HOP-92 NSCLC and with CCRF-CEM leukemia was above 100 µM throughout. The TGI in the assay on SW-620 colon, with UACC-62 melanoma, with HCT-116 colon and in the assay on MDA-MB-231 breast was above 100 µM in each case.

Regarding `COc1cc2ncnc(NS(=O)(=O)c3cc4ccccc4s3)c2cc1OC`, the TGI with MCF7 breast, with HS 578T breast, in the assay with NCI-H460 lung, in the assay with IGROV1 ovarian, in the assay on HOP-92 NSCLC and with CCRF-CEM leukemia was above 100 µM each time. The TGI in the assay on SW-620 colon, with UACC-62 melanoma, in the assay with HCT-116 colon and with MDA-MB-231 breast was above 100 µM each time.

With `Nc1cc(C2CCCc3c2[nH]c2ccccc32)ccc1O` (centres undefined), the TGI with MCF7 breast, in the assay with HS 578T breast, in the assay with NCI-H460 lung, with IGROV1 ovarian, in the assay with HOP-92 NSCLC and with CCRF-CEM leukemia was above 100 µM in each case. In addition, the TGI in the assay on SW-620 colon, in the assay on UACC-62 melanoma, in the assay with HCT-116 colon and in the assay on MDA-MB-231 breast was above 100 µM throughout.

For `Cc1ccc(C(=O)Nc2ccc(S(=O)(=O)O)c3cc(S(=O)(=O)O)cc(S(=O)(=O)O)c23)cc1NC(=O)c1cccc(NC(=O)Nc2cccc(C(=O)Nc3cc(C(=O)Nc4ccc(S(=O)(=O)O)c5cc(S(=O)(=O)O)cc(S(=O)(=O)O)c45)ccc3C)c2)c1`, the TGI in the assay on MCF7 breast, with HS 578T breast, with NCI-H460 lung, in the assay with IGROV1 ovarian, in the assay with HOP-92 NSCLC and in the assay on CCRF-CEM leukemia was above 100 µM throughout. In addition, the TGI in the assay with SW-620 colon, in the assay on UACC-62 melanoma, in the assay on HCT-116 colon and with MDA-MB-231 breast was above 100 µM each time.

On to `CC(=O)C1=C(C)N(c2ccccc2)C2(O)C3=C(C(=O)c4ccccc4C3=O)C(O)=CC12Cl` (centres undefined), for which the TGI is 39.9 µM in the assay on MCF7 breast; 15.2 µM in the assay with HS 578T breast; above 100 µM in the assay on NCI-H460 lung; 8.25 µM in the assay on IGROV1 ovarian; 30 µM with HOP-92 NSCLC; 62.5 µM in the assay on CCRF-CEM leukemia. Moreover, the TGI is above 100 µM in the assay with SW-620 colon, 73.9 µM in the assay on UACC-62 melanoma, above 100 µM in the assay with HCT-116 colon and above 100 µM in the assay with MDA-MB-231 breast.
